Columns and labels:
[1] = system: NADH:quinone oxidoreductase; test: Reactivity of Q-sHMRG with DT-diaphorase and increase in fluorescence; format: biochemical, microorganism; details: 1 µM probe, HEPES buffer pH 7.4, 25°C
Experimental: Q-sHMRG prepared in Synthesis Example 1 was dissolved to give a final concentration of 1 µM in a HEPES buffer (100 mM, pH 7.4) containing CaCl2 (1 mM), MgCl2 (1 mM), DTT (dithiothreitol, 100 µM), and Triton X-100 (250 µM), and an absorption spectrum was measured. Then, NADH (100 µM) and NADH:quinone oxidoreductase (10 µg/mL, Toyobo, DAD-311) were added, and after incubation at 25°C for 4 hours, an absorption spectrum was measured again. Results are shown in (A) of FIG. 1.
Also, Q-sHMRG prepared in Synthesis Example 1 was dissolved to give a final concentration of 1 µM in a HEPES buffer (100 mM, pH 7.4) containing CaCl2 (1 mM), MgCl2 (1 mM), DTT (dithiothreitol, 100 µM), and Triton X-100 (250 µM), and then NADH at various concentrations and NADH:quinone oxidoreductase (10 µg/mL) were added. After incubation at 25°C for 30 minutes, fluorescence intensity was measured. Results are shown in (B) and (C) of FIG. 1.

lactate dehydrogenase = test: Single-molecule coupled assay of lactate dehydrogenase oxidative activity in human plasma (microchamber array); format: biochemical; details: for S/N ratio compared with SiRWST-3 or Q-dsAMC as fluorescent probe: same experiment, with SiRWST-3, 100 µM 1-MeO-PMS in place of NADH:quinone oxidoreductase
Experimental: To a HEPES buffer (100 mM, pH 7.4) containing CaCl2 (1 mM), MgCl2 (1 mM), DTT (dithiothreitol, 100 µM), and Triton X-100 (200 µM), Q-sHMRG (30 µM), Q-HMRG (30 µM) or resazurin (30 µM), lactate (1 mM), NAD^+ (oxidized nicotinamide adenine dinucleotide, 500 µM), and NADH:quinone oxidoreductase (50 µg/mL, Toyobo, DAD-311) were added. Then, plasma obtained from a healthy human subject was added to give a 3000-fold dilution (preparation step, Step (A)). 40 µL of the solution (a pre-encapsulation aqueous solution) thus prepared was introduced into a microchamber array Simoa (registered trademark) disk (Quanterix). Subsequently, 80 µL of Fluorinert (registered trademark) FC-70 (Sigma-Aldrich) as a hydrophobic solvent was introduced into the microchamber array to remove an aqueous solution not introduced into wells, and thereby W/O droplets were formed in wells. After incubation at room temperature for 3 hours (reaction step, Step (B)), fluorescence images were acquired by an epifluorescence microscope Ti2 (Nikon) equipped with a 20× objective lens (Plan Apo 20×), an sCMOS camera (ORCA-Fusion C14440, Hamamatsu Photonics), a white light unit (X-Cite Xylis, Opto Science), and a motorized stage (fluorescence measurement step, Step (C)).

[2] = Fluorescence characteristics of reduction products; details: may be values measured in PBS at pH 7.4
Description: These fluorescence characteristics may be values measured, for example, in phosphate-buffered saline (PBS) at pH 7.4.

Row | fluorescence intensity increased by a reduction reaction by NADH:quinone oxidoreductase ([1]; NADH, NADH:quinone oxidoreductase 10 µg/mL (DAD-311)) [fold] | lowest quantity of NADH that the combination of probe and NADH:quinone oxidoreductase can detect ([1]; NADH:quinone oxidoreductase 10 µg/mL, 30 minutes) [µM] | ratio (S/N ratio) of fluorescence intensity of a well encapsulating lactate dehydrogenase to a well not encapsulating it (lactate dehydrogenase; 30 µM probe, lactate 1 mM, NAD+ 500 µM, plasma 3000-fold dilution, 3 hours, compared among Q-sHMRG, Q-HMRG and resazurin) | S/N ratio compared with SiRWST-3 or Q-dsAMC as fluorescent probe (lactate dehydrogenase) | molar extinction coefficient ([2]; at maximum absorption wavelength) [L/mol/cm] | fluorescence quantum yield [2] | mathematical product of molar extinction coefficient and fluorescence quantum yield [2] | maximum absorption wavelength [2] [nm] | maximum fluorescence wavelength [2] [nm] | Structure (SMILES)
1 | 235 | 0.01 | greater | larger | – | – | – | – | – | CC1=C(C)C(=O)C(C(C)(C)CC(=O)Nc2ccc3c(c2)Oc2cc(N)ccc2C32OCc3ccc(S(=O)(=O)O)cc32)=C(C)C1=O (stereo not shown) [Q-sHMRG]
2 | – | – | – | larger | – | – | – | – | – | O=c1ccc2[n+]([O-])c3ccc(O)cc3oc-2c1 [resazurin, reference compound]
3 | – | – | – | – | 80000 | 0.92 | 74000 | 498 | 517 | N=c1ccc2c(-c3ccc(S(=O)(=O)O)cc3CO)c3ccc(N)cc3oc-2c1 [sHMRG, 3',6'-diamino-3H-spiro[isobenzofuran-1,9'-xanthene]-5/6-sulfonic acid]

Source: patent EP4711470A1, “METHOD AND KIT FOR EVALUATING ENZYME ACTIVITY” (The University of Tokyo, priority 2023, dated 2025)
